From patent publication US11766430B2, “Methods of using a phenoxypropylamine compound to treat pain” (Minerva Neurosciences, Inc., priority 2018, dated 2023)
“And” between values parts separate entries of the source, which are not always exact repeats. Equal values may be shown once.

Tested on: carrageenan-induced mechanical hyperalgesia in rats
Test: Carrageenan-induced mechanical hyperalgesia, paw pressure test, time course to 240 min (Example 2)
Type: in vivo, male Sprague-Dawley rats
Protocol: In this model, inflammation is induced by intraplantar injection of carrageenan (2%) into the right hindpaw of the rat. Three hours later, reaction thresholds are measured using the paw pressure test. Pressure is gradually applied to both hind paws (inflamed and control) of the rat, and reaction thresholds are determined as the pressure (g) required to elicit paw withdrawal or vocalization. Morphine (3 mg/kg, s.c.) was used as a positive control.
The experiments in this study used fifty (50) male Sprague-Dawley rats (SPF status, Janvier, France), each weighing 204-260 grams. The rats were housed in a temperature (20-24° C.) and relative humidity (45%-65%) controlled room and acclimated to an artificial day/night cycle of 12 hours light (6.30 a.m. to 6.30 p.m.)/12 hours darkness. Rats had free access to sterilized tap water and were fed ad libitum with pelleted complete diet (reference A04, S.A.F.E.). Rats were housed 4 per cage (cages Type E) and were acclimated for a period of at least 5 days before any testing. Each rat was identified by tail markings. Based on the SPF status of the animal facilities, there is no reason to expect that contaminants were present in the food, water or bedding, at levels capable of interfering with the results of the tests.
Pain Test: Static mechanical hyperalgesia was assessed using the Paw Pressure test or Randall & Selitto test (Randall, L. O. and Selitto, J. J., A method for measurement of analgesic activity on inflamed tissue, Arch Int Pharmacodyn, 1957(111): 409-419). This test requires the application of an increasing pressure on the hind paws between a flat surface and a blunt pointer. This test is usually used with animals with one hind paw inflamed by an injection or injured by ligation, and one normal hind paw, to evaluate drugs for analgesic action. The apparatus exerts a steadily increasing force and reaction threshold is determined as the pressure (g) required to elicit paw withdrawal and/or vocalization. In the experiment, animals were gently handled by the experimenter and static mechanical hyperalgesia was assessed. Each reaction threshold measurement was done for both hind paws.
Five (5) experimental groups of 10 rats each were used. Each group was first injected with of 100 μL of a 2% carrageenan suspension in the plantar aspect of the right hindpaw. Three hours after carrageenan injection, paw withdrawal threshold was measured using the paw pressure test (Baseline). The 5 groups were then administered the following: • Group 1: vehicle (0.5% HPMC), i.p., solution (negative control); • Group 2: MIN-117 (0.01 mg/kg, i.p.) in 0.5% HPMC, suspension; • Group 3: MIN-117 (0.1 mg/kg, i.p.) in 0.5% HPMC, suspension; • Group 4: MIN-117 (1 mg/kg, i.p.) in 0.5% HPMC, suspension; and • Group 5: morphine (3 mg/kg, s.c.) in 0.9% NaCl, solution (positive control).
After administering vehicle, MIN-117, or morphine, the antihyperalgesic effect of the compounds was evaluated using the paw pressure test at 0 min. (T0), 30 min., 60 min., 120 min., and 240 min.
Vehicle and MIN-117 were administered intraperitoneally at 10 mL/kg. Morphine was subcutaneously administered at 5 mL/kg. Dosing and testing were performed in a random order by a blinded experimenter except for the morphine-treated group. Doses were expressed in terms of free active substance. Rats were sacrificed at the end of the experiment by CO2 inhalation pending subsequent removal by a certified company.
Results were assessed as: the paw withdrawal threshold (mean±s.e.m.) in grams of contact pressure for each group, calculated from individual paw withdrawal thresholds; the percentage of variation of the paw withdrawal threshold calculated from the mean value of the vehicle-treated group; and/or the percentage of activity. To determine a statistical effect of the test substance and the reference substance, data were analyzed by a non-parametrical test. The significance level was p<0.05.

[1] = 0.01 mg/kg i.p., 30 min, hydrochloride
[2] = 0.01 mg/kg i.p., 60 min, hydrochloride
[3] = 0.01 mg/kg i.p., 120 min, hydrochloride
[4] = 0.01 mg/kg i.p., 240 min, hydrochloride
[5] = 0.01 mg/kg i.p., Baseline, hydrochloride
[6] = 0.01 mg/kg i.p., T0 (baseline before dosing)
[7] = 0.01 mg/kg i.p., T0 (baseline before dosing), hydrochloride
[8] = 0.01 mg/kg i.p., T0 + 30 min, hydrochloride
[9] = 0.01 mg/kg i.p., T0 + 60 min, hydrochloride
[10] = 0.1 mg/kg i.p., 30 min, hydrochloride
[11] = 0.1 mg/kg i.p., 60 min, hydrochloride
[12] = 0.1 mg/kg i.p., 120 min, hydrochloride
[13] = 0.1 mg/kg i.p., 240 min, hydrochloride
[14] = 0.1 mg/kg i.p., Baseline, hydrochloride
[15] = 0.1 mg/kg i.p., T0 (baseline before dosing)

Cc1nnc(-c2cc3c(OC[C@@H](O)CN4CCC(c5ccc(Cl)c(Cl)c5)CC4)cccc3o2)o1.Cl [MIN-117, (2S)-1-(4-(3,4-dichlorophenyl)piperidin-1-yl)-3-((2-(5-methyl-1,3,4-oxadiazol-2-yl)benzofuran-4-yl)oxy)propan-2-ol hydrochloride]
Nociceptive threshold, control paw, individual rats [1]: 360 g (4×) and 380 g (3×) and 420 g and 340 g and 280 g
Nociceptive threshold, injured paw, individual rats [1]: 180 g (3×) and 220 g and 160 g (2×) and 140 g (2×) and 200 g (2×)
Nociceptive threshold, control paw, individual rats [2]: 380 g and 340 g (3×) and 320 g (2×) and 360 g (2×) and 420 g and 300 g
Nociceptive threshold, injured paw, individual rats [2]: 220 g (3×) and 160 g (3×) and 180 g (2×) and 140 g (2×)
Nociceptive threshold, control paw, individual rats [3]: 440 g and 360 g (2×) and 340 g and 320 g and 400 g (2×) and 420 g (2×) and 380 g
Nociceptive threshold, injured paw, individual rats [3]: 300 g and 180 g (2×) and 160 g (2×) and 200 g (4×) and 220 g
Nociceptive threshold, control paw, individual rats [4]: 340 g and 360 g (2×) and 380 g (2×) and 300 g and 320 g (3×) and 420 g
Nociceptive threshold, injured paw, individual rats [4]: 200 g (3×) and 180 g (4×) and 160 g (2×) and 140 g
Nociceptive threshold, control paw, individual rats [5]: 400 g (3×) and 380 g (3×) and 320 g and 360 g and 340 g (2×)
Nociceptive threshold, injured paw, individual rats [5]: 240 g and 180 g (5×) and 200 g (2×) and 160 g (2×)
% activity, injured paw [6]: 2%
% variation vs control paw, injured paw [6]: −50%
% variation vs vehicle-treated group, injured paw [6]: 2%
Nociceptive threshold, control paw (mean ± s.e.m.) [7]: 370.0 ± 9.1 g and 370 g
Nociceptive threshold, injured paw (mean ± s.e.m.) [7]: 186 ± 7.3 g and 186 g
% activity, injured paw (0.01 mg/kg i.p., T0 + 30 min): −1%
% variation vs control paw, injured paw (0.01 mg/kg i.p., T0 + 30 min): −51%
% variation vs pre-drug threshold, injured paw (0.01 mg/kg i.p., T0 + 30 min): −5%
Nociceptive threshold, control paw (mean ± s.e.m.) (0.01 mg/kg i.p., T0 + 30 min): 362 g
% variation vs vehicle-treated group, injured paw [8]: −1% and 1%
Nociceptive threshold, injured paw (mean ± s.e.m.) [8]: 176 ± 8.3 g and 176 g
% activity, injured paw (0.01 mg/kg i.p., T0 + 60 min): −6%
% variation vs control paw, injured paw (0.01 mg/kg i.p., T0 + 60 min): −49%
% variation vs pre-drug threshold, injured paw (0.01 mg/kg i.p., T0 + 60 min): −4%
Nociceptive threshold, control paw (mean ± s.e.m.) (0.01 mg/kg i.p., T0 + 60 min): 348 g
% variation vs vehicle-treated group, injured paw [9]: −5% and 5%
Nociceptive threshold, injured paw (mean ± s.e.m.) [9]: 178 ± 10.1 g and 178 g
% activity, injured paw (0.01 mg/kg i.p., T0 + 120 min): 9%
% variation vs control paw, injured paw (0.01 mg/kg i.p., T0 + 120 min): −48%
% variation vs pre-drug threshold, injured paw (0.01 mg/kg i.p., T0 + 120 min): 8%
% variation vs vehicle-treated group, injured paw (0.01 mg/kg i.p., T0 + 120 min): 8%
Nociceptive threshold, control paw (mean ± s.e.m.) (0.01 mg/kg i.p., T0 + 120 min): 384 g
Nociceptive threshold, injured paw (mean ± s.e.m.) (0.01 mg/kg i.p., T0 + 120 min, hydrochloride): 200 ± 12.6 g and 200 g
% activity, injured paw (0.01 mg/kg i.p., T0 + 240 min): −5%
% variation vs control paw, injured paw (0.01 mg/kg i.p., T0 + 240 min): −49%
% variation vs pre-drug threshold, injured paw (0.01 mg/kg i.p., T0 + 240 min): −4%
% variation vs vehicle-treated group, injured paw (0.01 mg/kg i.p., T0 + 240 min): −4%
Nociceptive threshold, control paw (mean ± s.e.m.) (0.01 mg/kg i.p., T0 + 240 min): 350 g
Nociceptive threshold, injured paw (mean ± s.e.m.) (0.01 mg/kg i.p., T0 + 240 min, hydrochloride): 178 ± 6.3 g and 178 g
Effect on injured paw withdrawal threshold vs vehicle-treated group (in words) (0.01 mg/kg i.p., time course 30-240 min): did not induce any significant increase
Nociceptive threshold, control paw, individual rats [10]: 440 g and 320 g (3×) and 460 g and 300 g and 360 g and 340 g (3×)
Nociceptive threshold, injured paw, individual rats [10]: 200 g (4×) and 160 g (2×) and 180 g (4×)
Nociceptive threshold, control paw, individual rats [11]: 360 g (3×) and 300 g (2×) and 420 g and 400 g and 320 g (2×) and 340 g
Nociceptive threshold, injured paw, individual rats [11]: 180 g (2×) and 140 g and 160 g (3×) and 200 g (3×) and 220 g
Nociceptive threshold, control paw, individual rats [12]: 380 g and 280 g and 420 g (2×) and 300 g and 340 g (3×) and 360 g (2×)
Nociceptive threshold, injured paw, individual rats [12]: 160 g (3×) and 140 g and 220 g and 200 g (2×) and 180 g (3×)
Nociceptive threshold, control paw, individual rats [13]: 400 g (2×) and 320 g and 340 g and 280 g and 360 g (3×) and 380 g and 300 g
Nociceptive threshold, injured paw, individual rats [13]: 180 g (3×) and 160 g (3×) and 140 g and 220 g (2×) and 200 g
Nociceptive threshold, control paw, individual rats [14]: 420 g (2×) and 380 g (2×) and 400 g (2×) and 360 g (2×) and 340 g and 320 g
Nociceptive threshold, injured paw, individual rats [14]: 200 g (3×) and 180 g (3×) and 160 g (4×)
% activity, injured paw [15]: −2%
% variation vs control paw, injured paw [15]: −53%
% variation vs vehicle-treated group, injured paw [15]: −2%
Nociceptive threshold, control paw (mean ± s.e.m.) (0.1 mg/kg i.p., T0 (baseline before dosing), hydrochloride): 378.0 ± 10.5 g and 378 g
